Columns and labels:
[1] = test system: HDAC10 and GAPDH levels in MV4–11 cells; test: Immunoblot for HDAC10 and GAPDH levels; format: cell-based; conditions: 24 h
MV4–11 cells [2] = test: Cyto-ID detection of modulation of autophagy; format: cell-based; conditions: 2–15 μM, 24 h, with 10 μM chloroquine
[3] = test system: SK-N-BE(2)-C neuroblastoma cells; test: LysoTracker assay; format: cell-based, Human; conditions: SK-N-BE(2)-C cells, 24 h
[4] = test system: acetylated tubulin-α in MV4–11 cells; test: Immunoblot for acetylated tubulin-α; format: cell-based; conditions: 15 μM, 24 h, did not reach significance
drHDAC10 = target: T1, drHDAC10 (Danio rerio, UniProt F1QCV2); test: drHDAC10 enzymatic in vitro assay; format: biochemical
T1 sequence (F1QCV2 1-675): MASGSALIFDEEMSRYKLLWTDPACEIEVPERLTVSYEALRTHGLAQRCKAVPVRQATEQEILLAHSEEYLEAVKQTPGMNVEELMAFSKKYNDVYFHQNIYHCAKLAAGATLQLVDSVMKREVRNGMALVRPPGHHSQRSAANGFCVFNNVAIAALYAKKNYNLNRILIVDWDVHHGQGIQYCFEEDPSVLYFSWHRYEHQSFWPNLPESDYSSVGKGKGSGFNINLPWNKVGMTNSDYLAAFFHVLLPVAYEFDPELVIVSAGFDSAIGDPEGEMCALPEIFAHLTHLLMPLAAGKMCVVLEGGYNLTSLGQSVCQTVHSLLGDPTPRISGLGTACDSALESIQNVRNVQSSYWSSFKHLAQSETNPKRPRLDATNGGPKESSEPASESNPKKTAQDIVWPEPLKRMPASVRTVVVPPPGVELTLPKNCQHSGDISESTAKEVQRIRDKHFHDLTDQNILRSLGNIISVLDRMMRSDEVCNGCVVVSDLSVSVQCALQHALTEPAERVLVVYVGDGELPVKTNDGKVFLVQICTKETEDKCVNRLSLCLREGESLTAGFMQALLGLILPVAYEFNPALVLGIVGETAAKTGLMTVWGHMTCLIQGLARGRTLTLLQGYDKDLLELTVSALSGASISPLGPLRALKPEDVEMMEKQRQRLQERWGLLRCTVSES

hHDAC8 = target: T2, hHDAC8 (Homo sapiens, UniProt Q9BY41); test: HDAC8 activity assay; format: biochemical
T2 sequence (Q9BY41 1-377): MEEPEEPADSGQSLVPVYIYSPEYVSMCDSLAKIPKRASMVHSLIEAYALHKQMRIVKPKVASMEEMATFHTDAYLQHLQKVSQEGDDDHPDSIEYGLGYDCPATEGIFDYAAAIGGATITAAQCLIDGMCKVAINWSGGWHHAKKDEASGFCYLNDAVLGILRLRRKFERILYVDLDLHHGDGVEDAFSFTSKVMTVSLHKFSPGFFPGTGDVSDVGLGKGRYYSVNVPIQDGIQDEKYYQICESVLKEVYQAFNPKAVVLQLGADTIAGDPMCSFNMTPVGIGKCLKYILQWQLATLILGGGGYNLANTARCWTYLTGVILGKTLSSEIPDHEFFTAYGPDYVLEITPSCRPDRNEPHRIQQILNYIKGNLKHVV

MV4–11 cells [5] = test: Annexin-V-FITC / PI flow cytometry; format: cell-based; conditions: 2–15 μM, 24 h
[6] = test system: acetylated histone H3 in MV4–11 cells; test: Immunoblot for acetylated histone H3; format: cell-based; conditions: 24 h
hHDAC1 = hHDAC1 (Homo sapiens, UniProt Q13547); test: recombinant HDAC1 homogenous fluorescence assay
hHDAC6 = target: T3, hHDAC6 (Homo sapiens, UniProt Q9UBN7); test: recombinant HDAC6 homogenous fluorescence assay
T3 sequence (Q9UBN7 1-1215): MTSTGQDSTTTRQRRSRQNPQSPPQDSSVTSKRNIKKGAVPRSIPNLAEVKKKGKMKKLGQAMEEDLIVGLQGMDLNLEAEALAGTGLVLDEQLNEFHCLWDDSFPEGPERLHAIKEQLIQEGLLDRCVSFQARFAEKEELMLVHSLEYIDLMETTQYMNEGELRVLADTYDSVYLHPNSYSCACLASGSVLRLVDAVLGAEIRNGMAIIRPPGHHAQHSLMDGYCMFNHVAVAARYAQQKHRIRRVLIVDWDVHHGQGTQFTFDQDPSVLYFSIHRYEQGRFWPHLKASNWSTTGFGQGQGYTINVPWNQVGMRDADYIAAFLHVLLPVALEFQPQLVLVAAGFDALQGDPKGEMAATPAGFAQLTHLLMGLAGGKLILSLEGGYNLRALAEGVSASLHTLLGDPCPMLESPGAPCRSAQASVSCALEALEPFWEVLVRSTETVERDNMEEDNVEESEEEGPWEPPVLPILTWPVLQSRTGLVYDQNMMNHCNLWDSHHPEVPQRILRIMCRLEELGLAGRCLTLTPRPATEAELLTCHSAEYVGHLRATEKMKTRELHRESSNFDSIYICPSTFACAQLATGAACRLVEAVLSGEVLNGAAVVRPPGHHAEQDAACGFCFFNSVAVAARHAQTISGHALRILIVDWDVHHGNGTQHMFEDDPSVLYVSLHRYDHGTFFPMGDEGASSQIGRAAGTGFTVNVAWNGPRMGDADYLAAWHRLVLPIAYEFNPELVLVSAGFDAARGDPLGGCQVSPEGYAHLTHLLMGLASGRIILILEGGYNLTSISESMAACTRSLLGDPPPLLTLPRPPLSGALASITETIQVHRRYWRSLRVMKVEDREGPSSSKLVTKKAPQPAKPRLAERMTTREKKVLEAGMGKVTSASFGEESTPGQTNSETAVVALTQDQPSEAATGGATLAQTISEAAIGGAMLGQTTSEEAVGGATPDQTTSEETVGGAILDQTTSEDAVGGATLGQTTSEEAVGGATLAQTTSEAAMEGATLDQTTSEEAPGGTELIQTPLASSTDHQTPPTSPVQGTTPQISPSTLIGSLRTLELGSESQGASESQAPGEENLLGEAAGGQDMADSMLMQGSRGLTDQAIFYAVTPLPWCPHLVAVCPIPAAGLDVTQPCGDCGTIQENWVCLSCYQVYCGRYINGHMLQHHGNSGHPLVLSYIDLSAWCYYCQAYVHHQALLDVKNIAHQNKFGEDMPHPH

Chain of hHDAC1 (Q13547 whole entry): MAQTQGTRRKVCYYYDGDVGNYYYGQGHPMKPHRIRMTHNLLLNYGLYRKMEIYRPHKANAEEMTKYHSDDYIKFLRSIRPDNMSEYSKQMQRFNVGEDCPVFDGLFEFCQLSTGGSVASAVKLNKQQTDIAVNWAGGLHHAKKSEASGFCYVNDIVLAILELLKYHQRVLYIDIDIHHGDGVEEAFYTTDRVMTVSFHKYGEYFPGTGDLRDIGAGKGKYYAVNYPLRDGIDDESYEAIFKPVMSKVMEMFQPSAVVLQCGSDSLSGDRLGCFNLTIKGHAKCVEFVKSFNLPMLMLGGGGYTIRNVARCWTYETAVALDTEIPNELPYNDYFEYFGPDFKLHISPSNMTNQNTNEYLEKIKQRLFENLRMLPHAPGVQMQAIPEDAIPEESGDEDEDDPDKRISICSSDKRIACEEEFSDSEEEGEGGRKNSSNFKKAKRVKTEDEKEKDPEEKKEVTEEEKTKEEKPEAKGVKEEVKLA

O=C(/C=C/C1CCN(Cc2cccc3ccccc23)CC1)NO [10c, (E)-3-[1-(naphthalen-1-ylmethyl)piperidin-4-yl]acrylhydroxamic acid]
GAPDH levels [1]: no change of GAPDH levels
HDAC10 protein levels [1]: slightly increased levels of HDAC10
accumulation of cyto-ID positive vesicles (MV4–11 cells [2]): significantly induced the accumulation of cyto-ID positive vesicles
expansion and acidification of the lysosomal compartment (LysoTracker DND-99) [3]: induced the expansion and acidification of the lysosomal compartment
tubulin acetylation compared to non-treated cells [4]: 36–80 fold
drHDAC10 inhibition (in words) (drHDAC10): Potent drHDAC10 inhibition
IC50 (hHDAC8): 470 ± 70 nM
apoptosis (annexin-V-FITC / PI) (MV4–11 cells [5]): did not trigger apoptosis
accumulation of acetylated histone H3 ([6]; 2–15 μM): did not induce a significant accumulation of acetylated histone H3

Cn1cc(CN2CCC(/C=C/C(=O)NO)CC2)c2ccccc21 [13b, (E)-3-{1-[(1-methylindol-3-yl)methyl]piperidin-4-yl} acrylhydroxamic acid]
GAPDH levels [1]: no change of GAPDH levels
HDAC10 protein levels [1]: slightly increased levels of HDAC10
accumulation of cyto-ID positive vesicles (MV4–11 cells [2]): significantly induced the accumulation of cyto-ID positive vesicles
expansion and acidification of the lysosomal compartment (LysoTracker DND-99) [3]: induced the expansion and acidification of the lysosomal compartment
tubulin acetylation compared to non-treated cells [4]: 36–80 fold
drHDAC10 inhibition (in words) (drHDAC10): Potent drHDAC10 inhibition
apoptosis (annexin-V-FITC / PI) (MV4–11 cells [5]): did not trigger apoptosis
accumulation of acetylated histone H3 ([6]; 2–15 μM): did not induce a significant accumulation of acetylated histone H3

O=C(NO)c1ccc(CNCc2cccs2)cc1 [4b, 4-{[(thiophen-2-ylmethyl)amino]methyl}benzhydroxamic acid]
selectivity index (SI), hHDAC1 over drHDAC10 (hHDAC1): 85
selectivity index (SI), hHDAC8 over drHDAC10 (hHDAC8): 30

O=C(NO)c1ccc(CNCc2ccsc2)cc1 [4c, 4-{[(thiophen-3-ylmethyl)amino]methyl}benzhydroxamic acid]
selectivity index (SI), hHDAC1 over drHDAC10 (hHDAC1): 417

O=C(/C=C/C1CCN(CCc2ccccc2)CC1)NO [10a, (E)-3-(1-phenethylpiperidin-4-yl)acrylhydroxamic acid]
selectivity index (SI), hHDAC1 over drHDAC10 (hHDAC1): 1454
selectivity index (SI), hHDAC6 over drHDAC10 (hHDAC6): 395
IC50 (hHDAC8): 250 ± 50 nM
selectivity index (SI), hHDAC8 over drHDAC10 (hHDAC8): 23

O=C(/C=C/C1CCN(CCc2c[nH]c3ccccc23)CC1)NO [10b, (E)-3-{1-[2-(1H-indol-3-yl)ethyl]piperidin-4-yl}acrylhydroxamic acid]
drHDAC10 inhibition (in words) (drHDAC10): Potent drHDAC10 inhibition
IC50 (hHDAC8): 420 ± 55 nM

O=C(/C=C/C1CCN(Cc2csc3ccccc23)CC1)NO [13a, (E)-3-{1-[benzothiophen-3-ylmethyl]piperidin-4-yl} acrylhydroxamic acid]
drHDAC10 inhibition (in words) (drHDAC10): Potent drHDAC10 inhibition

O=C(/C=C/C1CCN(Cc2cccc(Cl)c2)CC1)NO [10d, (E)-3-[1-(3-chlorobenzyl)piperidin-4-yl]acrylhydroxamic acid]
IC50 (hHDAC8): 2500 ± 260 nM

O=C(NO)c1ccc(CN2CCCCC2)cc1 [6a, 4-(piperidin-1-ylmethyl)benzhydroxamic acid]
drHDAC10 inhibition (in words) (drHDAC10): only weak HDAC10 inhibition

O=C(NO)c1ccc(CNCc2ccccc2)cc1 [4a, 4-[(benzylamino)methyl]-benzhydroxamic acid]
selectivity index (SI), hHDAC8 over drHDAC10 (hHDAC8): 94

Nc1ccccc1NC(=O)c1ccc(CNC(=O)OCc2cccnc2)cc1 [Entinostat (MS-275), entinostat, reference compound]
accumulation of acetylated histone H3 ([6]; 5 μM, positive control): induced a highly significant accumulation of acetylated histone H3

CN1CCN(Cc2ccc(C(=O)NO)cc2)CC1 [6b, 4-[(N-methylpiperazin-1-yl)methyl]benzhydroxamic acid]
selectivity index (SI), hHDAC6 over drHDAC10 (hHDAC6): 9
IC50 (hHDAC8): 2400 ± 210 nM

Reference: article PMC9007901 (European journal of medicinal chemistry, 2022)
